# “Also recorded” adds a separate entry of the source. Where a name gives a salt, the structure may show the parent alone.
# Tests used:
# [1] = Stability test under light condition; type: physicochemical; conditions: for stability under light condition in words: text statement; for The decomposed amount (%): light box 4500 Lx ± 500 Lx, 25° C., 12 days, chiral HPLC vs day 0
# Method: The stability test was carried out on 10 mg of each of the free base, salts of the morpholine derivative in Examples 1-6 under light condition.
# [2] = Hygroscopicity test (weight change as humidity increased from 20% to 80%); type: physicochemical; conditions: for Weight change in 20%-80% humidity: 5 mg sample, humidity increased from 20% to 80%; for Level (hygroscopicity): 20%-80% humidity
# Method: 5 mg of each of the salts of the morpholine derivative in the examples was measured for their weight change as the humidity was increased from 20% to 80%.
# [3] = Solubility test in pure water; type: physicochemical; conditions: for Solubility: pure water, 25° C., 5 mg sample; for water solubility: summary statement in description
# Method: 5 mg of each of the free base and salts of the morpholine derivative in Examples 1-7 was added with pure water gradually at 25° C., until all the samples were completely dissolved. The solubility of each sample was calculated based on the actual weight of the sample and the amount of water.
# [4] = Dynamic Vapor Sorption Analysis (DVS); type: physicochemical; conditions: for hygroscopicity in words: text statement
# Method: Dynamic Vapor Sorption Analysis (DVS) data was taken from a TA Instruments Q5000 TGA, instrument control software was Thermal Advantage, and analysis software was Universal Analysis. Generally, 1 to 10 mg of the sample was placed in a platinum crucible, the TA software generally recorded the weight change of the sample as the relative humidity changed from 0% to 80% to 0%. According to the specific conditions of the sample, different adsorption and desorption steps might also be applied to the sample.
# [5] = Stability test under oxidation condition; type: physicochemical; conditions: for Types of new impurities (type) / The decomposed amount (%): closed container with hydrogen peroxide urea, 40° C., 12 days; for The decomposed amount (%): chiral HPLC vs day 0; for stability under oxidation condition in words: text statement
# Method: The stability test was conducted on 10 mg of each of the free base and salts of the morpholine derivative in the examples under oxidation condition.
# [6] = background statement on prior-art free base; cited from earlier work
# [7] = background statement on prior-art free base; cited from earlier work; remark: listed apart in the source
SMILES,stability under light condition in words [1],Weight change in 20%-80% humidity [2] [%],Solubility [3] [mg/mL],water solubility [3] [mg/mL],hygroscopicity in words [4],Types of new impurities (type) [5] [type],The decomposed amount (%) [5] [%],The decomposed amount (%) [1] [%],Level (hygroscopicity) [2],DVS weight change in a range of 20%-80% humidity [4],other results
COC(=O)NCCCn1nc([C@@H](C)N(C(=O)[C@H]2CNCCO2)C2CC2)c2ccc(C)nc21 [morpholine derivative acetate],good thermal stability,21.30,150 to 300,150 to 300,deliquesced,5,95.71,–,–,–,"DVS weight loss during the drying stage ([4]; 0% of the initial humidity): about 5%; DVS moisture absorbed, amount of its weight ([4]; 20% to 60% humidity): 6.4%; DVS moisture absorbed, amount of its weight ([4]; 90% of humidity): 40%"
"COC(=O)NCCCn1nc([C@@H](C)N(C(=O)[C@H]2CNCCO2)C2CC2)c2ccc(C)nc21 [morpholine derivative free base, methyl (3-(3-((R)-1-((R)—N-cyclopropylmorpholine-2-carboxamido)ethyl)-6-methyl-1H-pyrazolo[3,4-b]pyridin-1-yl)n-propyl)carbamate, reference compound]",–,–,5 to 10,–,–,6,38.0,100,difficult,–,oxidation stability in words [6]: relatively easy to be oxidized; water solubility in words [7]: poor water solubility
COC(=O)NCCCn1nc([C@@H](C)N(C(=O)[C@H]2CNCCO2)C2CC2)c2ccc(C)nc21 [morpholine derivative hydrochloride],good thermal stability,31.80,>500,> 500,deliquescent; also recorded: very hydroscopic,6,63.53,5.27,Very easy,–,DVS water absorbed in 0% to 60% RH ([4]; 0% to 60% RH): 15%
COC(=O)NCCCn1nc([C@@H](C)N(C(=O)[C@H]2CNCCO2)C2CC2)c2ccc(C)nc21 [morpholine derivative malate],better stability,1.70,100,~100,–,2,8.46,2.05,–,about 1.2%,stability under oxidation condition in words [5]: better stability
COC(=O)NCCCn1nc([C@@H](C)N(C(=O)[C@H]2CNCCO2)C2CC2)c2ccc(C)nc21 [morpholine derivative naphthalene disulfonate],good thermal stability,–,>500,> 500,very hydroscopic,7,51.47,12.58,Very easy,–,–
COC(=O)NCCCn1nc([C@@H](C)N(C(=O)[C@H]2CNCCO2)C2CC2)c2ccc(C)nc21 [morpholine derivative tartrate crystal form A],–,1.50,100,–,hardly hydroscopic,6,17.93,2.14,difficult,about 1.5%,stability under light condition in words ([1]; listed as crystal form A): equivalent stability; hygroscopicity in words ([4]; listed as crystal form A): hardly hydroscopic
COC(=O)NCCCn1nc([C@@H](C)N(C(=O)[C@H]2CNCCO2)C2CC2)c2ccc(C)nc21 [morpholine derivative tartrate crystal form B],–,6.58,150 to 300,–,relatively hydroscopic,4,3.24,3.61,easy,about 7%,stability under light condition in words ([1]; listed as crystal form B): equivalent stability; hygroscopicity in words ([4]; listed as crystal form B): relatively hydroscopic; stability under oxidation condition in words ([5]; listed as crystal form B): more stable than crystal form A
COC(=O)NCCCn1nc([C@@H](C)N(C(=O)[C@H]2CNCCO2)C2CC2)c2ccc(C)nc21 [morpholine derivative tartrate dihydrate],–,9.05,100,–,relatively hydroscopic,–,–,–,easy,–,DVS weight change in a range of 0%-80% humidity ([4]; 0%-80% humidity): about 11.06%
COC(=O)NCCCn1nc([C@@H](C)N(C(=O)[C@H]2CNCCO2)C2CC2)c2ccc(C)nc21 [morpholine derivative tartrate],–,–,–,50 to 300,–,–,–,–,–,–,–

# Source: patent publication US10519150B2, “Salts of morpholine derivative, crystal forms thereof, processes for producing the same, pharmaceutical compositions including the same, and use thereof” (SHANGHAI PHARMACEUTICALS HOLDING CO., LTD., priority 2015, dated 2019)
